Values of other authors as cited in patent US20250360135A1, “COMPOSITIONS COMPRISING DISODIUM 5,10-METHYLENE-(6R)-TETRAHYDROFOLATE” (MERCK PATENT GMBH, priority 2022, published 2025).

purity after 7 hours (after 7 hours): 84%
normalized purity after 24 hours (after 24 hours): 45%
degradation rate (loss of purity per hour) (re-constituted lyophilizate, linear regression of stability profile): 2.2 % purity per hour
SMILES: Nc1nc2c(c(=O)[nH]1)N1CN(c3ccc(C(=O)N[C@@H](CCC(=O)O)C(=O)O)cc3)C[C@H]1CN2 [5,10-methylene-(6R,S)-tetrahydrofolic acid]
